Data from patent US4740601A, “Imidazole derivatives having antimicrobial activities” (SS Pharmaceutical Co., Ltd., priority 1985, dated 1988).
≈ marks a conversion by molar mass, not a printed value.

Experiments:
Assay type in all cases: cell-based
[1] = tested on: Bacillus subtilis ATCC 6633; experiment: antimicrobial activity, MIC; conditions: Bacillus subtilis, ATCC6633, Bacillus subtilis ATCC 6633; read-out: MIC
[2] = tested on: Staphylococcus aureus FDA 209P; experiment: antimicrobial activity, MIC; conditions: Staphylococcus aureus, FDA209P, read-out: MIC
[3] = tested on: Staphylococcus aureus Terajima; experiment: antimicrobial activity, MIC; conditions: Staphylococcus aureus, read-out: MIC
[4] = tested on: Staphylococcus aureus Smith; experiment: antimicrobial activity, MIC; conditions: Staphylococcus aureus, read-out: MIC
[5] = tested on: Staphylococcus epidermidis ATCC 12228; experiment: antimicrobial activity, MIC; conditions: Staphylococcus epidermidis, ATCC12228, Staphylococcus epidermidis ATCC 12228; read-out: MIC
Sarcina lutea ATCC 9341 = experiment: antimicrobial activity, MIC; conditions: Micrococcus luteus, ATCC9341, Sarcina lutea ATCC 9341; read-out: MIC
[6] = tested on: Streptococcus faecalis IFO 12964; experiment: antimicrobial activity, MIC; conditions: Enterococcus faecalis, IFO12964, Streptococcus faecalis IFO 12964; read-out: MIC
[7] = tested on: Micrococcus lysodeixticus IFO 3333; experiment: antimicrobial activity, MIC; conditions: Micrococcus, IFO3333, Micrococcus lysodeixticus IFO 3333; read-out: MIC
[8] = tested on: Candida albicans NHL 4019; experiment: antimicrobial activity, MIC; conditions: Candida albicans, NHL4019, Candida albicans NHL 4019; read-out: MIC
Candida albicans Yu-1200 = experiment: antimicrobial activity, MIC; conditions: YU1200, read-out: MIC
[9] = tested on: Saccharomyces cerevisiae ATCC 9763; experiment: antimicrobial activity, MIC; conditions: Saccharomyces cerevisiae, ATCC9763, Saccharomyces cerevisiae ATCC 9763; read-out: MIC
Saccharomyces ruxii 6507 = experiment: antimicrobial activity, MIC; conditions: Saccharomyces ruxii 6507; read-out: MIC
[10] = tested on: Aspergillus niger ATCC 9642; experiment: antimicrobial activity, MIC; conditions: Aspergillus niger, ATCC9642, Aspergillus niger ATCC 9642; read-out: MIC
[11] = tested on: Penicillium chrysogenum ATCC 6010; experiment: antimicrobial activity, MIC; conditions: Penicillium chrysogenum, ATCC6010, Penicillium chrysogenum ATCC 6010; read-out: MIC
[12] = tested on: Trichophyton mentagrophytes QM 248; experiment: antimicrobial activity, MIC; conditions: Trichophyton mentagrophytes, QM248, Trichophyton mentagrophytes QM 248; read-out: MIC
[13] = tested on: Trichophyton mentagrophytes IFO 5812; experiment: antimicrobial activity, MIC; conditions: Trichophyton mentagrophytes, IFO5812, Trichophyton mentagrophytes IFO 5812; read-out: MIC
[14] = tested on: Trichophyton tonsurans IFO 5928; experiment: antimicrobial activity, MIC; conditions: Trichophyton tonsurans, IFO5928, Trichophyton tonsurans IFO 5928; read-out: MIC
[15] = tested on: Trichophyton rubrum NHL J; experiment: antimicrobial activity, MIC; conditions: Trichophyton rubrum, Trichophyton rubrum NHL J; read-out: MIC
[16] = tested on: Microsporum gypseum IFO 8231; experiment: antimicrobial activity, MIC; conditions: Nannizzia gypsea, IFO8231, Microsporum gypseum IFO 8231; read-out: MIC
[17] = tested on: Microsporum audounii IFO 6074; experiment: antimicrobial activity, MIC; conditions: Microsporum, IFO6074, Microsporum audounii IFO 6074; read-out: MIC
[18] = tested on: Microsporum cookei IFO 8303; experiment: antimicrobial activity, MIC; conditions: Paraphyton cookei, IFO8303, Microsporum cookei IFO 8303; read-out: MIC
[19] = tested on: Epidermophyton floccosum IFO 9045; experiment: antimicrobial activity, MIC; conditions: Epidermophyton floccosum, IFO9045, Epidermophyton floccosum IFO 9045; read-out: MIC
[20] = tested on: Aspergillus oryzae IMF 4014; experiment: antimicrobial activity, MIC; conditions: Aspergillus oryzae, IMF4014, Aspergillus oryzae IMF 4014; read-out: MIC
[21] = tested on: Cladosporium fulvum IAM 5006; experiment: antimicrobial activity, MIC; conditions: Fulvia fulva, IAM5006, Cladosporium fulvum IAM 5006; read-out: MIC
[22] = tested on: Fusarium moniliforme IAM 5062; experiment: antimicrobial activity, MIC; conditions: Fusarium verticillioides, IAM5062, Fusarium moniliforme IAM 5062; read-out: MIC
[23] = tested on: Helminthosporium sesamum IAM 5012; experiment: antimicrobial activity, MIC; conditions: Helminthosporium, IAM5012, Helminthosporium sesamum IAM 5012; read-out: MIC
[24] = tested on: Pyricularia oryzae IAM 5016; experiment: microbe, parasite or virus in culture; conditions: Pyricularia oryzae, IAM5016, Pyricularia oryzae IAM 5016
[25] = tested on: Debaryomyces kloeckeri IFO 0015; experiment: antimicrobial activity, MIC; conditions: IFO0015, read-out: MIC
[26] = tested on: Gibberella fujikuroi IAM 8046; experiment: antimicrobial activity, MIC; conditions: Fusarium fujikuroi, IAM8046, Gibberella fujikuroi IAM 8046; read-out: MIC

Compound	MIC [1] [µg/mL]	MIC [2] [µg/mL]	MIC [3] [µg/mL]	MIC [4] [µg/mL]	MIC [5] [µg/mL]	MIC (Sarcina lutea ATCC 9341) [µg/mL]	MIC [6] [µg/mL]	MIC [7] [µg/mL]	MIC [8] [µg/mL]	MIC (Candida albicans Yu-1200) [µg/mL]	MIC [9] [µg/mL]	MIC (Saccharomyces ruxii 6507) [µg/mL]	MIC [10] [µg/mL]	MIC [11] [µg/mL]	MIC [12] [µg/mL]	MIC [13] [µg/mL]	MIC [14] [µg/mL]	MIC [15] [µg/mL]	MIC [16] [µg/mL]	MIC [17] [µg/mL]	other results
CCCCCCOc1ccccc1C(=CCl)n1ccnc1 (single isomer, unassigned) [Compound 83]	6.25 (≈ 20.5 µM)	12.5 (≈ 41 µM)	6.25 (≈ 20.5 µM)	12.5 (≈ 41 µM)	6.25 (≈ 20.5 µM)	3.12 (≈ 10.2 µM)	12.5 (≈ 41 µM)	1.56 (≈ 5.12 µM)	50 (≈ 164 µM)	12.5 (≈ 41 µM)	25 (≈ 82 µM)	< 0.2	12.5 (≈ 41 µM)	25 (≈ 82 µM)	< 0.2	< 0.2	< 0.2	< 0.2	1.56 (≈ 5.12 µM)	< 0.2	MIC [18]: 6.25 µg/mL (≈ 20.5 µM); MIC [19]: 6.25 µg/mL (≈ 20.5 µM); MIC [20]: 12.5 µg/mL (≈ 41 µM); MIC [21]: 12.5 µg/mL (≈ 41 µM); MIC [22]: 25 µg/mL (≈ 82 µM); MIC [23]: 6.25 µg/mL (≈ 20.5 µM); MIC [24]: < 0.2 µg/mL; MIC [25]: 6.25 µg/mL (≈ 20.5 µM); MIC [26]: 25 µg/mL (≈ 82 µM)
CCOc1ccccc1C(=CSCc1ccccc1)n1ccnc1 [Compound 7]	25 (≈ 74.3 µM)	50 (≈ 149 µM)	25 (≈ 74.3 µM)	12.5 (≈ 37.2 µM)	25 (≈ 74.3 µM)	12.5 (≈ 37.2 µM)	50 (≈ 149 µM)	6.25 (≈ 18.6 µM)	100 (≈ 297 µM)	> 100	< 0.2	0.78 (≈ 2.32 µM)	12.5 (≈ 37.2 µM)	50 (≈ 149 µM)	3.12 (≈ 9.27 µM)	0.78 (≈ 2.32 µM)	< 0.2	< 0.2	1.56 (≈ 4.64 µM)	< 0.2	MIC [18]: 12.5 µg/mL (≈ 37.2 µM); MIC [19]: 6.25 µg/mL (≈ 18.6 µM); MIC [20]: 6.25 µg/mL (≈ 18.6 µM); MIC [21]: 100 µg/mL (≈ 297 µM); MIC [22]: 6.25 µg/mL (≈ 18.6 µM); MIC [23]: 0.39 µg/mL (≈ 1.16 µM); MIC [24]: < 0.2 µg/mL; MIC [25]: 25 µg/mL (≈ 74.3 µM); MIC [26]: 6.25 µg/mL (≈ 18.6 µM)
CCCCOc1ccccc1C(=C(Br)Br)n1ccnc1 [Compound 93]	12.5 (≈ 31.2 µM)	25 (≈ 62.5 µM)	25 (≈ 62.5 µM)	25 (≈ 62.5 µM)	25 (≈ 62.5 µM)	25 (≈ 62.5 µM)	50 (≈ 125 µM)	6.25 (≈ 15.6 µM)	100 (≈ 250 µM)	> 100	< 0.2	< 0.2	> 100	> 100	1.56 (≈ 3.9 µM)	< 0.2	1.56 (≈ 3.9 µM)	0.39 (≈ 0.975 µM)	6.25 (≈ 15.6 µM)	< 0.2	MIC [18]: 12.5 µg/mL (≈ 31.2 µM); MIC [19]: 25 µg/mL (≈ 62.5 µM); MIC [20]: > 100 µg/mL; MIC [21]: > 100 µg/mL; MIC [22]: > 100 µg/mL; MIC [23]: 50 µg/mL (≈ 125 µM); MIC [24]: 0.39 µg/mL (≈ 0.975 µM); MIC [25]: 6.25 µg/mL (≈ 15.6 µM); MIC [26]: > 100 µg/mL
